Results reported in ChEMBL document CHEMBL4024706 (Eur J Med Chem, 2017).

Columns and labels:
[1] = target: Tyrosine-protein kinase Fer (Homo sapiens) (UniProt P16591); test: Inhibition of wild-type human partial length FER (S542 to T822 residues) expressed in bacterial expression system assessed as residual activity at 1 uM by Kinomescan method relative to control
[2] = target: Serine/threonine-protein kinase 10 (Homo sapiens) (UniProt O94804); test: Inhibition of wild-type human partial length LOK (E16 to V314 residues) expressed in bacterial expression system assessed as residual activity at 1 uM by Kinomescan method relative to control
[3] = target: LIM domain kinase 1 (Homo sapiens) (UniProt P53667); test: Inhibition of wild-type human full length LIMK1 (M1 to D647 residues) expressed in bacterial expression system assessed as residual activity at 1 uM by Kinomescan method relative to control
[4] = target: Calcium/calmodulin-dependent protein kinase type II subunit delta (Homo sapiens) (UniProt Q13557); test: Inhibition of wild-type human partial length CAMK2D (M1 to E329 residues) expressed in bacterial expression system assessed as residual activity at 1 uM by Kinomescan method relative to control
[5] = target: Serine/threonine-protein kinase PLK4 (Homo sapiens) (UniProt O00444); test: Inhibition of wild-type human partial length PLK4 (M1 to S273 residues) expressed in mammalian expression system assessed as residual activity at 1 uM by Kinomescan method relative to control
[6] = target: Tyrosine-protein kinase BTK (Homo sapiens, UniProt Q06187); test: Inhibition of BTK auto-phosphorylation at Y223 in human U2932 cells measured after 4 hrs by chemiluminescent assay
[7] = target: Cyclin-dependent kinase 4 (Homo sapiens) (UniProt P11802); test: Inhibition of wild-type human full length CDK4 (M1 to E303 residues) expressed in mammalian expression system assessed as residual activity at 1 uM by Kinomescan method relative to control
[8] = target: Atypical kinase COQ8B, mitochondrial (Homo sapiens) (UniProt Q96D53); test: Inhibition of wild-type human full length ADCK4 (M1 to S544 residues) expressed in bacterial expression system assessed as residual activity at 1 uM by Kinomescan method relative to control
[9] = target: Cyclin-dependent kinase 11A (Homo sapiens) (UniProt Q9UQ88); test: Inhibition of wild-type human partial length CDC2L2 (D391 to K730 residues) expressed in bacterial expression system assessed as residual activity at 1 uM by Kinomescan method relative to control
[10] = test system: Tyrosine-protein kinase ABL1 (Homo sapiens), P00519 [F317L]; test: Inhibition of human phosphorylated ABL1 F317L mutant (S229 to K512 residues) expressed in mammalian expression system assessed as residual activity at 1 uM by Kinomescan method relative to control
[11] = test system: Epidermal growth factor receptor (Homo sapiens), P00533 [UNDEFINED MUTATION]; test: Inhibition of human partial length EGFR L747-S752del/P753S mutant expressed in bacterial expression system assessed as residual activity at 1 uM by Kinomescan method relative to control
[12] = target: Phosphatidylinositol 3-kinase catalytic subunit type 3 (Homo sapiens) (UniProt Q8NEB9); test: Inhibition of wild-type human partial length VPS34 (S282 to H879 residues) expressed in mammalian expression system assessed as residual activity at 1 uM by Kinomescan method relative to control
[13] = target: Serine/threonine-protein kinase ULK3 (Homo sapiens) (UniProt Q6PHR2); test: Inhibition of wild-type human partial length ULK3 (M1 to Q290 residues) expressed in mammalian expression system assessed as residual activity at 1 uM by Kinomescan method relative to control
[14] = target: Fibroblast growth factor receptor 2 (Homo sapiens) (UniProt P21802); test: Inhibition of wild-type human partial length FGFR2 (D457 to E769 residues) expressed in bacterial expression system assessed as residual activity at 1 uM by Kinomescan method relative to control
[15] = target: Serine/threonine-protein kinase DCLK2 (Homo sapiens) (UniProt Q8N568); test: Inhibition of wild-type human partial length DCAMKL2 (K273 to V664 residues) expressed in bacterial expression system assessed as residual activity at 1 uM by Kinomescan method relative to control
[16] = target: Phosphatidylinositol 5-phosphate 4-kinase type-2 beta (Homo sapiens) (UniProt P78356); test: Inhibition of wild-type human full length PIP5K2B (M1 to T416 residues) expressed in bacterial expression system assessed as residual activity at 1 uM by Kinomescan method relative to control
[17] = target: cGMP-dependent protein kinase 2 (Homo sapiens) (UniProt Q13237); test: Inhibition of wild-type human partial length PRKG2 (S422 to F762 residues) expressed in mammalian expression system assessed as residual activity at 1 uM by Kinomescan method relative to control
[18] = target: Serine/threonine-protein kinase 36 (Homo sapiens) (UniProt Q9NRP7); test: Inhibition of wild-type human partial length STK36 (M1 to T271 residues) expressed in bacterial expression system assessed as residual activity at 1 uM by Kinomescan method relative to control
[19] = target: Casein kinase I isoform alpha-like (Homo sapiens) (UniProt Q8N752); test: Inhibition of wild-type human full length CSNK1A1L (M1 to N337 residues) expressed in bacterial expression system assessed as residual activity at 1 uM by Kinomescan method relative to control
[20] = target: Serine/threonine-protein kinase PAK 3 (Homo sapiens) (UniProt O75914); test: Inhibition of wild-type human full length PAK3 (M1 to R544 residues) expressed in bacterial expression system assessed as residual activity at 1 uM by Kinomescan method relative to control
[21] = target: Protein kinase C delta type (Homo sapiens) (UniProt Q05655); test: Inhibition of wild-type human partial length PRKCD (Q328 to D676 residues) expressed in bacterial expression system assessed as residual activity at 1 uM by Kinomescan method relative to control
[22] = test system: Epidermal growth factor receptor (Homo sapiens), P00533 [G719C]; test: Inhibition of human partial length EGFR G719C mutant (R669 to V1011 residues) expressed in bacterial expression system assessed as residual activity at 1 uM by Kinomescan method relative to control
[23] = target: Inhibitor of nuclear factor kappa-B kinase subunit alpha (Homo sapiens) (UniProt O15111); test: Inhibition of wild-type human full length IKK-alpha (M1 to E745 residues) expressed in mammalian expression system assessed as residual activity at 1 uM by Kinomescan method relative to control
[24] = target: Serine/threonine-protein kinase haspin (Homo sapiens) (UniProt Q8TF76); test: Inhibition of wild-type human partial length HASPIN (I452 to K798 residues) expressed in mammalian expression system assessed as residual activity at 1 uM by Kinomescan method relative to control
[25] = target: Serine/threonine-protein kinase TAO2 (Homo sapiens) (UniProt Q9UL54); test: Inhibition of wild-type human partial length TAOK2 (M1 to A320 residues) expressed in mammalian expression system assessed as residual activity at 1 uM by Kinomescan method relative to control

Sequence of Serine/threonine-protein kinase ULK3 (Homo sapiens) (Q6PHR2 whole entry, the tested form may be a part): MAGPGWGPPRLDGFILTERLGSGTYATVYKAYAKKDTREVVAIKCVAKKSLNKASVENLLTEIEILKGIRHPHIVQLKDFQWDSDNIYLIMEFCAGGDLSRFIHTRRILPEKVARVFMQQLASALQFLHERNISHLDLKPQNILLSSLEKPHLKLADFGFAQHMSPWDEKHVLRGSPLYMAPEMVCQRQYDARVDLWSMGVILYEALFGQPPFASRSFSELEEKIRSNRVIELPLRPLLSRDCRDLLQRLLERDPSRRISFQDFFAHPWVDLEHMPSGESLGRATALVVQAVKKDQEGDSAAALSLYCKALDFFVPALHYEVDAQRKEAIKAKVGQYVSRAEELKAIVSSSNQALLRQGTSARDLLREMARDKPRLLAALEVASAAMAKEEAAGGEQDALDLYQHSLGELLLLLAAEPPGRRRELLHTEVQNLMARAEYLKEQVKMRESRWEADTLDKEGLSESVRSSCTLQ
Sequence of Atypical kinase COQ8B, mitochondrial (Homo sapiens) (Q96D53 whole entry, the tested form may be a part): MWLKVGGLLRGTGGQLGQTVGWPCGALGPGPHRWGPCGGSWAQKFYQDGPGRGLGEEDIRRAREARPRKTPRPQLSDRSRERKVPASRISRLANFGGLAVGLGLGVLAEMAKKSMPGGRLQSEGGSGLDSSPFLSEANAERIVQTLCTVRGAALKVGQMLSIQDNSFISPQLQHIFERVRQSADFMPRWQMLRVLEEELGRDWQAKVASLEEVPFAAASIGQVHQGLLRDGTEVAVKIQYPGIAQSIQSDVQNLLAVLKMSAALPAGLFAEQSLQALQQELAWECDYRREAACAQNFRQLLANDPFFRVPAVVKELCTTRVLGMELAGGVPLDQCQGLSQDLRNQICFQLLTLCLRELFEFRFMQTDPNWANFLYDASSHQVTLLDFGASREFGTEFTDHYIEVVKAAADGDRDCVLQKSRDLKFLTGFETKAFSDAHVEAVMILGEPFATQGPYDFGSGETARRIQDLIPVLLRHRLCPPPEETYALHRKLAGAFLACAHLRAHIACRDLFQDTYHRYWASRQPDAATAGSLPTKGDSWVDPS
Sequence of Tyrosine-protein kinase BTK (Q06187 whole entry, the tested form may be a part): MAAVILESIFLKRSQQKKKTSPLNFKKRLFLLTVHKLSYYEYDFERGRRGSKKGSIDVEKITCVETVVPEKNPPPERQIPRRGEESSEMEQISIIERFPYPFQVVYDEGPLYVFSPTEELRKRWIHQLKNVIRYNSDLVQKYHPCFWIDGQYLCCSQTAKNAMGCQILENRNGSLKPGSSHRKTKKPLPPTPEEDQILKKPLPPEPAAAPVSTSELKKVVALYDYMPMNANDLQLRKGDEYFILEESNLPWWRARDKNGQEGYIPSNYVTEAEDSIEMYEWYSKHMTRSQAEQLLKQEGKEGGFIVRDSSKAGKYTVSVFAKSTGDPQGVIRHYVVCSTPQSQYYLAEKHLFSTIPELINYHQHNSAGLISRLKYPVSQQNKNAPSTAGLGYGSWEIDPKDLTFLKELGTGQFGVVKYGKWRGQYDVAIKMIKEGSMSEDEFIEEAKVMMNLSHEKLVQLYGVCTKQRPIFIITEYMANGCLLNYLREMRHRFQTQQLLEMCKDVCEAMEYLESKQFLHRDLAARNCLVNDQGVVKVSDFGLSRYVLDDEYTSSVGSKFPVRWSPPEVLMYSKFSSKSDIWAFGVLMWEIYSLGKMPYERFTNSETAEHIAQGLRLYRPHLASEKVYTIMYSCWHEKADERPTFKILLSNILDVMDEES
Sequence of Tyrosine-protein kinase Fer (Homo sapiens) (P16591 whole entry, looked up, the tested form may be a part): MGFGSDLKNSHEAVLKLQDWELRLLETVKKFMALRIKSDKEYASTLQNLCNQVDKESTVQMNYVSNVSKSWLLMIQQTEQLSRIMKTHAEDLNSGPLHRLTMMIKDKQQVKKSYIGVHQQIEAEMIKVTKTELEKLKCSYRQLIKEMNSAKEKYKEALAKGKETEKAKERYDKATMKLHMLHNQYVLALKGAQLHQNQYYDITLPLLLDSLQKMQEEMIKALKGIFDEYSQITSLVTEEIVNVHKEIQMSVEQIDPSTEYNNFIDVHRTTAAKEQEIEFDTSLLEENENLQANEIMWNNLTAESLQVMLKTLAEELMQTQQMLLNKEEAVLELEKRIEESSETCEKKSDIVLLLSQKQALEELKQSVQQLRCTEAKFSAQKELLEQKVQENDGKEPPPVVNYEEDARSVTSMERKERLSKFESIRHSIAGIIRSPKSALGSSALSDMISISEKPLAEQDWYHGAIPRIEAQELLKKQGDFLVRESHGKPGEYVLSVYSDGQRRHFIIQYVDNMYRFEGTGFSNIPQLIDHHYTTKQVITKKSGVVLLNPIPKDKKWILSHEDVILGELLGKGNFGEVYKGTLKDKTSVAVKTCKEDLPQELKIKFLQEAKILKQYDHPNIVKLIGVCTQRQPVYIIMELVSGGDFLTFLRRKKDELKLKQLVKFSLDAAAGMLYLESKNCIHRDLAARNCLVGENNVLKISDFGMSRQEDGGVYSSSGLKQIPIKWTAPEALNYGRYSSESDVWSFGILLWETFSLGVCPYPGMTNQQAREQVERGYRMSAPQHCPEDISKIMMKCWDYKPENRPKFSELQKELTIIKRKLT
Sequence of Calcium/calmodulin-dependent protein kinase type II subunit delta (Homo sapiens) (Q13557 whole entry, the tested form may be a part): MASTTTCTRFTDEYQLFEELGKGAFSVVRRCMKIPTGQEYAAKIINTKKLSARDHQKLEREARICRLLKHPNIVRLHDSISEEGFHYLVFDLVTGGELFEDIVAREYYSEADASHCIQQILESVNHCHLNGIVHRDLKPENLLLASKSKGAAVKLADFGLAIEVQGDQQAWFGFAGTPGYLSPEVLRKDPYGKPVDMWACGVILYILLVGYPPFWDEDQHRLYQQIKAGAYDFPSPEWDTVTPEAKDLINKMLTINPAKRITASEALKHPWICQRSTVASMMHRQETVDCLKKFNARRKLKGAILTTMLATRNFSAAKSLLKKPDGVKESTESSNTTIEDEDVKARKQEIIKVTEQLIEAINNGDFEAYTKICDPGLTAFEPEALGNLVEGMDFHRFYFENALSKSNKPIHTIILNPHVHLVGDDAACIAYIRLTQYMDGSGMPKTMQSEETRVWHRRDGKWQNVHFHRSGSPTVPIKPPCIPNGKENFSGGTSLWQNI
Sequence of Serine/threonine-protein kinase PAK 3 (Homo sapiens) (O75914 whole entry, looked up, the tested form may be a part): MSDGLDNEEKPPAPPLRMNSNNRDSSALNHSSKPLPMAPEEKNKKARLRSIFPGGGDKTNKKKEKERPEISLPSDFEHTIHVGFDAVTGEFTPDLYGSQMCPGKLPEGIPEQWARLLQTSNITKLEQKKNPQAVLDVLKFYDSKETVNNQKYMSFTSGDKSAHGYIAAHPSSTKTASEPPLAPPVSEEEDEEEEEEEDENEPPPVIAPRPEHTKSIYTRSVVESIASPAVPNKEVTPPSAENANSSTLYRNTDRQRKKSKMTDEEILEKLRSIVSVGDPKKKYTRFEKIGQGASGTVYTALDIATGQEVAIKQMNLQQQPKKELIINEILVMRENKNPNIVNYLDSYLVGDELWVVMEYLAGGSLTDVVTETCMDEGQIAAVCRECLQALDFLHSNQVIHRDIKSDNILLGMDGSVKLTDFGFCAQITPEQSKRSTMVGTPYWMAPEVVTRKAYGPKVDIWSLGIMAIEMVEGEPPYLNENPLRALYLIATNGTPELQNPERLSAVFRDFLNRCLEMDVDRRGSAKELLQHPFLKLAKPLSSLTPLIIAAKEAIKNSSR
Sequence of Cyclin-dependent kinase 4 (Homo sapiens) (P11802 whole entry, the tested form may be a part): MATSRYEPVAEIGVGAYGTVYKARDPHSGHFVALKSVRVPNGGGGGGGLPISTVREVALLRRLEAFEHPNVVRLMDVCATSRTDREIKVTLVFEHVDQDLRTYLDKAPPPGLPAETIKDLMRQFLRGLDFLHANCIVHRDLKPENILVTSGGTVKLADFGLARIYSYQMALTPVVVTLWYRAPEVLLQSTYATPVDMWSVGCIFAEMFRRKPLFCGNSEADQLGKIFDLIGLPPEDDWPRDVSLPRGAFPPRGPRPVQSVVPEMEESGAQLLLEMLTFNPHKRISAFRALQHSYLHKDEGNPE
Sequence of Serine/threonine-protein kinase 10 (Homo sapiens) (O94804 whole entry, looked up, the tested form may be a part): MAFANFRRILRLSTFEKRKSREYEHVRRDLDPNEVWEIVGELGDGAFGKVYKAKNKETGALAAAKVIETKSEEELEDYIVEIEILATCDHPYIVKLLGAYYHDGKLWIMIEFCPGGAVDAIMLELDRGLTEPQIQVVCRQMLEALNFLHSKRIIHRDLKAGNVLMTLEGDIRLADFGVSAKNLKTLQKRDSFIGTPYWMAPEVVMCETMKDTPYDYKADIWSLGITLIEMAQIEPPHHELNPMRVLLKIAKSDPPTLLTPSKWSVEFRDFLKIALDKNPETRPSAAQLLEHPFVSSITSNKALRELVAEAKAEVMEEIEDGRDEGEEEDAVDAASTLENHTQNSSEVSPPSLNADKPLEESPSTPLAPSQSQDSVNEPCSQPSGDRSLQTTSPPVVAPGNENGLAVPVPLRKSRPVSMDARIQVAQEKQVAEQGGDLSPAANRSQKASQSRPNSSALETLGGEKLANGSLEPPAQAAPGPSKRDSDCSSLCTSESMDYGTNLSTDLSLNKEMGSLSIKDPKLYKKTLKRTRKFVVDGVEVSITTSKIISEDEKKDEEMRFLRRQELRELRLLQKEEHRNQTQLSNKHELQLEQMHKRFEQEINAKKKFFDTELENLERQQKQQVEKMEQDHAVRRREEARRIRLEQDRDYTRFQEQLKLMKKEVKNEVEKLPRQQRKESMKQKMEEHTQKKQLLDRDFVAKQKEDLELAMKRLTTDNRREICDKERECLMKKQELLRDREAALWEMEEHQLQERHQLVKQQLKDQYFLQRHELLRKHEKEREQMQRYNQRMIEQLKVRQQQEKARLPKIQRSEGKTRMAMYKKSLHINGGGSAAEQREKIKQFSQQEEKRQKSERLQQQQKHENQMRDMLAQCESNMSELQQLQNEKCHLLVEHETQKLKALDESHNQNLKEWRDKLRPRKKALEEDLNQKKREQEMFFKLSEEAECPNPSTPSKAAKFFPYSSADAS

## C=CC(=O)Nc1cc(Nc2cc(-c3cccc(NC(=O)c4ccc(C(C)(C)C)cc4)c3C)cn(C)c2=O)ccc1C(=O)N1CCOCC1
[1]
  Activity: 99%
[2]
  Activity: 94%
[3]
  Activity: 86%
[4]
  Activity: 100%
[5]
  Activity: 99%
[6]
  EC50: < 30 nM
[7]
  Activity: 100%
[8]
  Activity: 100%
[9]
  Activity: 94%
[10]
  Activity: 97%
[11]
  Activity: 88%
[12]
  Activity: 90%
[13]
  Activity: 99%
[14]
  Activity: 74%
[15]
  Activity: 89%
[16]
  Activity: 82%
[17]
  Activity: 96%
[18]
  Activity: 93%
[19]
  Activity: 100%
[20]
  Activity: 71%
[21]
  Activity: 96%
[22]
  Activity: 100%
[23]
  Activity: 100%
[24]
  Activity: 54%
[25]
  Activity: 89%
